Measurements published in ChEMBL document CHEMBL1159211, “Antifungal evaluation of pseudolaric acid B, a major constituent of Pseudolarix kaempferi” (J Nat Prod, 1995).
≈ marks a conversion by molar mass, not a printed value. Calls of active or inactive are those of the source. No cut-off for these calls is given here.

Assays:
[1] = system: Aspergillus fumigatus; assay: Antimicrobial activity against Aspergillus fumigatus at 1 mg/mL by agar-well diffusion assay; format: functional; settings: for zone of inhibition at 1000 µg/mL: Aspergillus fumigatus, read-out: IZ
[2] = system: Candida albicans; assay: Antimicrobial activity against Candida albicans at 1 mg/mL by agar-well diffusion assay; format: functional; settings: for zone of inhibition at 1000 µg/mL: Candida albicans, read-out: IZ
[3] = system: Trichophyton mentagrophytes; assay: Antimicrobial activity against Trichophyton mentagrophytes at 1 mg/mL by agar-well diffusion assay; format: functional
[4] = system: Nannizzia gypsea; assay: Antimicrobial activity against Microsporum gypseum at 1 mg/mL by agar-well diffusion assay; format: functional
[5] = system: Candida albicans; assay: Antifungal activity against Candida albicans ATCC 10231 by twofold serial broth dilution method; format: functional
[6] = system: Candida tropicalis; assay: Antifungal activity against Candida tropicalis LM 64 at 1 mg/mL by agar-well diffusion assay; format: functional; settings: Candida tropicalis; read-out: IZ
[7] = system: Candida tropicalis; assay: Antifungal activity against Candida tropicalis ATCC 20021 at 1 mg/mL by agar-well diffusion assay; format: functional; settings: Candida tropicalis, ATCC 20021; read-out: IZ
[8] = system: Yarrowia deformans; assay: Antifungal activity against Torulopsis petrophilum ATCC 20225 by twofold serial broth dilution method; format: functional
[9] = system: Candida parapsilosis; assay: Antifungal activity against Candida parapsilosis ATCC 20224 by twofold serial broth dilution method; format: functional; settings: Lodderomyces parapsilosis
[10] = system: Mus musculus; assay: Toxicity in CD1 mouse assessed as body weight at 40 mg/kg, ip after day 1; format: organism-based; set-up: dose 40 mg/kg, route intraperitoneal; settings: in vivo
[11] = system: Candida albicans; assay: Antifungal activity against Candida stellatoidea SA-I by twofold serial broth dilution method; format: functional
[12] = system: Candida tropicalis; assay: Antifungal activity against Candida tropicalis LM 64 by twofold serial broth dilution method; format: functional
[13] = system: Candida albicans; assay: Antifungal activity against Candida albicans B311 by twofold serial broth dilution method; format: functional
[14] = system: Candida albicans; assay: (§1) Antifungal activity against Candida albicans NIH B311 infected in mouse assessed as reduction in number of recovered colony-forming units assessed per mg of kidney at 10 mg/kg, iv administered 18 and 42 hrs after infection measured 16 hrs after final injection by tenfold serial dilution method relative to control; format: functional; set-up: scale not given: the % may be the effect or the level left
[15] = system: Mus musculus; assay: Toxicity in CD1 mouse assessed as unusual behavioral changes at 40 mg/kg, ip administered for 14 consecutive days measured daily for 4 weeks; format: organism-based; set-up: dose 40 mg/kg, route intraperitoneal; settings: in vivo, 672 h
[16] = Toxicity in ip dosed CD1 mouse; format: organism-based; settings: in vivo
[17] = system: Mycobacterium intracellulare; assay: Antimicrobial activity against Mycobacterium intracellular at 1 mg/mL by agar-well diffusion assay; format: functional; settings: for zone of inhibition at 1000 µg/mL: read-out: IZ
[18] = system: Candida albicans; assay: as §1, with “20” for “10”; format: functional; set-up: scale not given: the % may be the effect or the level left
[19] = system: Candida tropicalis; assay: Antifungal activity against Candida tropicalis ATCC 20021 by twofold serial broth dilution method; format: functional
[20] = system: Torula; assay: Antifungal activity against Torula cremoris NRRL 7495 at 1 mg/mL by agar-well diffusion assay; format: functional; settings: Torula, NRRL 7495; read-out: IZ
[21] = system: Candida albicans; assay: Antifungal activity against Candida albicans ATCC 10231 at 1 mg/mL by agar-well diffusion assay; format: functional; settings: Candida albicans, ATCC 10231; read-out: IZ
[22] = system: Candida tropicalis; assay: Antifungal activity against Candida tropicalis ATCC 20326 at 1 mg/mL by agar-well diffusion assay; format: functional; settings: Candida tropicalis, ATCC 20326; read-out: IZ
[23] = system: Candida albicans; assay: as §1, with “mg/kg, sc” for “mg/kg, iv”, “administered 7” for “administered 18”, “and 24” for “and 42”; format: functional; set-up: scale not given: the % may be the effect or the level left; settings: route subcutaneous
[24] = system: Mus musculus; assay: Toxicity in CD1 mouse assessed as body weight at 40 mg/kg, ip administered for 14 consecutive days measured after day 21; format: organism-based; set-up: dose 40 mg/kg, route intraperitoneal; settings: in vivo
[25] = system: Candida parapsilosis; assay: Antifungal activity against Candida parapsilosis ATCC 20224 at 1 mg/mL by agar-well diffusion assay; format: functional; settings: Lodderomyces parapsilosis, ATCC 20224; read-out: IZ
[26] = system: Starmerella magnoliae; assay: Antifungal activity against Candida magnoliae ATCC 12573 at 1 mg/mL by agar-well diffusion assay; format: functional; settings: ATCC 12573; read-out: IZ
[27] = system: Candida tropicalis; assay: Antifungal activity against Candida tropicalis ATCC 20326 by twofold serial broth dilution method; format: functional
[28] = system: Candida albicans; assay: Antifungal activity against Candida stellatoidea SA-I at 1 mg/mL by agar-well diffusion assay; format: functional; settings: Candida albicans; read-out: IZ
[29] = system: Yarrowia deformans; assay: Antifungal activity against Torulopsis petrophilum ATCC 20225 at 1 mg/mL by agar-well diffusion assay; format: functional; settings: Yarrowia deformans, ATCC 20225; read-out: IZ
[30] = system: Candida albicans; assay: Antifungal activity against Candida albicans B311 at 1 mg/mL by agar-well diffusion assay; format: functional; settings: Candida albicans, B311; read-out: IZ
[31] = system: Candida albicans; assay: as §1, with “at 20” for “at 10”, “mg/kg, sc” for “mg/kg, iv”, “administered 7” for “administered 18”, “and 24” for “and 42”; format: functional; set-up: scale not given: the % may be the effect or the level left; settings: route subcutaneous
[32] = system: Mus musculus; assay: Toxicity in CD1 mouse assessed as body weight at 40 mg/kg, ip administered for 14 consecutive days measured after day 14; format: organism-based; set-up: dose 40 mg/kg, route intraperitoneal; settings: in vivo
[33] = Toxicity in iv dosed CD1 mouse; format: organism-based; settings: in vivo
[34] = system: Torula; assay: Antifungal activity against Torula cremoris NRRL 7495 by twofold serial broth dilution method; format: functional
[35] = system: Candida albicans; assay: as §1, with “at 3” for “at 10”, “mg/kg, sc” for “mg/kg, iv”, “administered 7” for “administered 18”, “and 24” for “and 42”; format: functional; set-up: scale not given: the % may be the effect or the level left; settings: route subcutaneous
[36] = system: Saccharomyces cerevisiae; assay: Antimicrobial activity against Saccharomyces cerevisiae at 1 mg/mL by agar-well diffusion assay; format: functional, organism-based
[37] = system: Pseudomonas aeruginosa; assay: Antimicrobial activity against Pseudomonas aeruginosa at 1 mg/mL by agar-well diffusion assay; format: functional, organism-based
[38] = system: Bacillus subtilis; assay: Antimicrobial activity against Bacillus subtilis at 1 mg/mL by agar-well diffusion assay; format: functional, organism-based
[39] = system: Cryptococcus neoformans; assay: Antimicrobial activity against Cryptococcus neoformans at 1 mg/mL by agar-well diffusion assay; format: functional
[40] = system: Escherichia coli; assay: Antimicrobial activity against Escherichia coli at 1 mg/mL by agar-well diffusion assay; format: functional, organism-based
[41] = system: Aspergillus flavus; assay: Antimicrobial activity against Aspergillus flavus at 1 mg/mL by agar-well diffusion assay; format: functional
[42] = system: Candida albicans; assay: Antifungal activity against Candida albicans B311 infected in CD1 mouse assessed as prolongation of survival time at 40 mg/kg, ip administered 7 hrs postinfection and continued for 7 or 14 consecutive days; format: functional, organism-based; set-up: dose 40 mg/kg
[43] = system: Candida albicans; assay: Antifungal activity against Candida albicans B311 assessed decrease in number of viable cells at 1 to 10 ug/ml after 24 hrs by time-to kill curve assay; format: functional, organism-based
[44] = system: Staphylococcus aureus; assay: Antimicrobial activity against Staphylococcus aureus at 1 mg/mL by agar-well diffusion assay; format: functional, organism-based
[45] = system: Candida albicans; assay: Antifungal activity against Candida albicans B311 infected in CD1 mouse assessed as prolongation of survival time at 10 mg/kg, iv administered 1, 3 and 5 days postinfection; format: functional, organism-based; set-up: dose 10 mg/kg

For `COC(=O)C1=CC[C@@]23CC[C@@H]([C@@](C)(/C=C/C=C(\C)C(=O)[O-])OC2=O)[C@@]3(OC(C)=O)CC1.[Na+]` [SODIUM PSEUDOLARATE B], the “inhibition zone (IZ)” value [1] was 3 mm, the “inhibition zone (IZ)” value [2] was 7 mm and the “inhibition zone (IZ)” value [3] was 7 mm. The “inhibition zone (IZ)” value [4] was 7 mm.

For `COC(=O)C1=CC[C@@]23CC[C@@H]([C@@](C)(/C=C/C=C(\C)C(=O)O)OC2=O)[C@@]3(OC(C)=O)CC1` [PSEUDOLARIC ACID B], the MFC [5] was 3.12 µg/mL (≈ 7.21 µM), the MIC [5] was 1.56 µg/mL (≈ 3.61 µM) and the zone of inhibition at 1000 µg/mL [6] was > 12 mm. It also gave a zone of inhibition at 1000 µg/mL [7] of 7 mm, an MFC [8] of 1.56 µg/mL (≈ 3.61 µM) and an MIC [8] of 0.78 µg/mL (≈ 1.8 µM). The MFC [9] was 12.5 µg/mL (≈ 28.9 µM), the MIC [9] was 3.12 µg/mL (≈ 7.21 µM) and the Activity [10] was 22.5 g. The MFC [11] was 6.25 µg/mL (≈ 14.5 µM), the MIC [11] was 1.56 µg/mL (≈ 3.61 µM) and the MFC [12] was 6.25 µg/mL (≈ 14.5 µM). For the same compound, the MIC [12] was 0.78 µg/mL (≈ 1.8 µM), the zone of inhibition at 1000 µg/mL [1] was 3 mm and the MFC [13] was 3.12 µg/mL (≈ 7.21 µM). The MIC [13] was 1.56 µg/mL (≈ 3.61 µM), the Activity [14] was 95.34% and the Activity [15] was “Non-toxic”. The LD50 [16] was 316 mg/kg, the zone of inhibition at 1000 µg/mL [2] was 7 mm and the zone of inhibition at 1000 µg/mL [17] was 1 mm. The Activity [18] was 59.9%, the MFC [19] was 3.12 µg/mL (≈ 7.21 µM) and the MIC [19] was 1.56 µg/mL (≈ 3.61 µM). For the same compound, the zone of inhibition at 1000 µg/mL [20] was 3 mm, the zone of inhibition at 1000 µg/mL [21] was 7 mm and the zone of inhibition at 1000 µg/mL [22] was 7 mm. The Activity [23] was 75%, the Activity [24] was 24.7 g and the zone of inhibition at 1000 µg/mL [25] was 7 mm. The zone of inhibition at 1000 µg/mL [26] was < 1 mm, the MFC [27] was 3.12 µg/mL (≈ 7.21 µM) and the MIC [27] was 1.56 µg/mL (≈ 3.61 µM). For the same compound, the zone of inhibition at 1000 µg/mL [28] was > 12 mm, the zone of inhibition at 1000 µg/mL [29] was 7 mm and the zone of inhibition at 1000 µg/mL ([3]; Trichophyton mentagrophytes, read-out: IZ) was 7 mm. The zone of inhibition at 1000 µg/mL [30] was 7 mm, the Activity [31] was 76.7% and the Activity [32] was 24.1 g. It also gave an LD50 [33] of 423 mg/kg, a zone of inhibition at 1000 µg/mL ([4]; Nannizzia gypsea, read-out: IZ) of 7 mm and an MFC [34] of 12.5 µg/mL (≈ 28.9 µM). For the same compound, the MIC [34] was 12.5 µg/mL (≈ 28.9 µM) and the Activity [35] was 70.27%.

With `COC(=O)C1=CC[C@@]23CC[C@@H]([C@@](C)(/C=C/C=C(\C)C(=O)O)OC2=O)[C@@]3(OC(C)=O)CC1` the Activity [36] was “inactive”, the Activity [37] was “inactive” and the Activity [38] was “inactive”. The Activity [17] was “inactive”, the Activity [39] was “inactive” and the Activity [40] was “inactive”. The Activity [41] was “inactive”, the Activity [42] was “inactive” and the Activity [43] was “Active”. For the same compound, the Activity [44] was “inactive” and the Activity [45] was “Active”.

With `CC(=O)O[C@]12CCC(C(=O)O)=CC[C@]13CC[C@H]2[C@@](C)(/C=C/C=C(\C)C(=O)O)OC3=O` [PSEUDOLARIC ACID C2] the Activity [36] was “inactive”, the Activity [37] was “inactive” and the Activity [38] was “inactive”. The Activity [1] was “inactive”, the zone of inhibition at 1000 µg/mL [2] was < 1 mm and the Activity [17] was “inactive”. For the same compound, the Activity [39] was “inactive”, the Activity [40] was “inactive” and the Activity [41] was “inactive”. The Activity [3] was “inactive”, the Activity [4] was “inactive” and the Activity [44] was “inactive”.

With `COC(=O)C1=CC[C@@]23CC[C@@H]([C@@](C)(/C=C/C=C(\C)C(=O)O)OC2=O)[C@@]3(O)CC1` [PSEUDOLARIC ACID C] the Activity [36] was “inactive”, the Activity [37] was “inactive” and the Activity [38] was “inactive”. The zone of inhibition at 1000 µg/mL [1] was 1 mm, the zone of inhibition at 1000 µg/mL [2] was 1 mm and the zone of inhibition at 1000 µg/mL [17] was 1 mm. The zone of inhibition at 1000 µg/mL ([39]; read-out: IZ) was 1 mm, the Activity [40] was “inactive” and the zone of inhibition at 1000 µg/mL ([41]; read-out: IZ) was 1 mm. The Activity [3] was “inactive”, the Activity [4] was “inactive” and the Activity [44] was “inactive”.
